Reference: PubChem BioAssay AID248 (DTP/NCI, 2004)
“And” between values parts separate entries of the source, which are not always exact repeats. Identical values can stand only once. Inconclusive results and toxic doses are left out. No stated cut-off is given here; in the data, active means T/C of 150% or more; inactive means T/C below 125%.

System: L1210 leukemia ip in BDF1 mice, survival T/C
Experiment: NCI In Vivo Anticancer Drug Screen. Data for tumor model L1210 Leukemia (intraperitoneal) in B6D2F1 (BDF1) mice
Details: endpoint: mean survival time, higher = longer survival
Outline: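 In this screen, tumor-bearing mice given compound are compared to those given vehicle, and their survival values are reported as a treated-to-control quotient.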

[1] = dose: 50.0 mg/kg/injection, schedule: Q01DX001 (ip), vehicle: saline
[2] = dose: 100.0 mg/kg/injection, schedule: Q01DX001 (ip), vehicle: saline
[3] = dose: 200.0 mg/kg/injection, schedule: Q01DX001 (ip), vehicle: saline
[4] = dose: 400.0 mg/kg/injection, schedule: Q01DX001 (ip), vehicle: saline
[5] = dose: 100.0 mg/kg/injection, schedule: Q01DX001 (ip), vehicle: carboxymethylcellulose (CMC)
[6] = dose: 200.0 mg/kg/injection, schedule: Q01DX001 (ip), vehicle: carboxymethylcellulose (CMC)
[7] = dose: 400.0 mg/kg/injection, schedule: Q01DX001 (ip), vehicle: carboxymethylcellulose (CMC)
[8] = dose: 100.0 mg/kg/injection, schedule: Q04DX003 (ip), vehicle: saline with Tween-80
[9] = dose: 200.0 mg/kg/injection, schedule: Q04DX003 (ip), vehicle: saline with Tween-80
[10] = dose: 400.0 mg/kg/injection, schedule: Q04DX003 (ip), vehicle: saline with Tween-80

Measured: T/C

Nc1ncnc2c1ncn2C1OC(CO)CC1O (stereo not drawn)
inactive: dose: 37.0 mg/kg/injection, schedule: Q01DX Z (ip), vehicle: carboxymethylcellulose (CMC) 114 % of control | [1] 111 % of control | dose: 75.0 mg/kg/injection, schedule: Q01DX Z (ip), vehicle: carboxymethylcellulose (CMC) 111 % of control | [2] 111 % of control | dose: 150.0 mg/kg/injection, schedule: Q01DX Z (ip), vehicle: carboxymethylcellulose (CMC) 114 % of control | [3] 115 % of control | dose: 300.0 mg/kg/injection, schedule: Q01DX Z (ip), vehicle: carboxymethylcellulose (CMC) 114 % of control and 115 % of control | [4] 123 % of control

Nc1cc(OCc2ccccc2)cc(OCc2ccccc2)c1
inactive: dose: 25.0 mg/kg/injection, schedule: Q01DX009 (ip), vehicle: water 89 % of control | dose: 50.0 mg/kg/injection, schedule: Q01DX009 (ip), vehicle: water 97 % of control | dose: 100.0 mg/kg/injection, schedule: Q01DX009 (ip), vehicle: water 93 % of control

COCn1cnc2c(ccn2C2OC(CO)C(O)C2O)c1=O (stereo not drawn)
inactive: [1] 104 % of control | [2] 93 % of control | [3] 106 % of control | [4] 106 % of control

Clc1ccc(N=Cc2ccc3c(c2)OCO3)cc1
inactive: dose: 100.0 mg/kg/injection, schedule: Q01DX009 (ip), vehicle: other 93 % of control | dose: 200.0 mg/kg/injection, schedule: Q01DX009 (ip), vehicle: other 98 % of control | dose: 400.0 mg/kg/injection, schedule: Q01DX009 (ip), vehicle: other 90 % of control

O=S(=O)(O)SCCCNc1ncnc2ccccc12
inactive: [5] 107 % of control | [6] 105 % of control | [7] 102 % of control

CCOC(=O)/C=C1/Nc2cc(C)c(C)cc2NC1=O
inactive: [8] 91 % of control | [9] 89 % of control | [10] 94 % of control

Cc1ccc(S(=O)(=O)N(c2cc([N+](=O)[O-])ccc2Br)S(=O)(=O)c2ccc(C)cc2)cc1
inactive: dose: 100.0 mg/kg/injection, schedule: Q04DX002 (ip), vehicle: saline with Tween-80 88 % of control | dose: 200.0 mg/kg/injection, schedule: Q04DX002 (ip), vehicle: saline with Tween-80 98 % of control | dose: 400.0 mg/kg/injection, schedule: Q04DX002 (ip), vehicle: saline with Tween-80 88 % of control

Cc1ccc(NC(=O)Nc2ccccc2F)cc1NC(=O)Nc1ccccc1F
inactive: dose: 100.0 mg/kg/injection, schedule: Q01DX009 (ip), vehicle: saline with Tween-80 93 % of control | dose: 200.0 mg/kg/injection, schedule: Q01DX009 (ip), vehicle: saline with Tween-80 88 % of control | dose: 400.0 mg/kg/injection, schedule: Q01DX009 (ip), vehicle: saline with Tween-80 94 % of control

Nc1nc(N)c(CCc2ccccc2)c(=O)[nH]1
inactive: [8] 100 % of control | [9] 94 % of control | [10] 94 % of control

NC1CCC2CCCCC2C1 (stereo not drawn)
inactive: dose: 25.0 mg/kg/injection, schedule: Q01DX009 (ip), vehicle: Klucel (hydroxypropylcellulose) (HPC) 101 % of control | dose: 25.0 mg/kg/injection, schedule: Q04DX003 (ip), vehicle: Klucel (hydroxypropylcellulose) (HPC) 95 % of control | dose: 50.0 mg/kg/injection, schedule: Q01DX009 (ip), vehicle: Klucel (hydroxypropylcellulose) (HPC) 93 % of control | dose: 50.0 mg/kg/injection, schedule: Q04DX003 (ip), vehicle: Klucel (hydroxypropylcellulose) (HPC) 100 % of control | dose: 100.0 mg/kg/injection, schedule: Q01DX009 (ip), vehicle: Klucel (hydroxypropylcellulose) (HPC) 98 % of control | dose: 100.0 mg/kg/injection, schedule: Q04DX003 (ip), vehicle: Klucel (hydroxypropylcellulose) (HPC) 94 % of control

O=C(Nc1ccccc1)c1ccccc1C(O)(c1ccccc1)c1ccccc1
inactive: [2] 97 % of control | [3] 86 % of control | [4] 102 % of control

O=S(=O)(O)SCNCNCCSCc1ccccc1
inactive: dose: 12.5 mg/kg/injection, schedule: Q04DX002 (ip), vehicle: Klucel (hydroxypropylcellulose) (HPC) 91 % of control | dose: 25.0 mg/kg/injection, schedule: Q04DX002 (ip), vehicle: Klucel (hydroxypropylcellulose) (HPC) 112 % of control | dose: 50.0 mg/kg/injection, schedule: Q04DX002 (ip), vehicle: Klucel (hydroxypropylcellulose) (HPC) 91 % of control

Cc1cc(=O)[nH]c2c(C)cc(Cc3cc(C)c4[nH]c(=O)cc(C)c4c3)cc12
inactive: [5] 96 % of control | [6] 101 % of control | [7] 103 % of control
